Measurements published in US10980781B2, “6-amino-2,4-dihydropyrano [2,3-c] pyrazoles and methods of use” (Purdue Research Foundation, priority 2017, dated 2021).

Biological target: USP7 (Homo sapiens (Human), UniProt Q93009)
Assay: USP7 inhibition assay with Ub-Rho 110 substrate (fluorescence progress curves)
Assay type: biochemical
Details: for inhibition at 100 µM / % inhibition @100 μM: 100 μM compound, 1 nM USP7, 200 nM Ub-Rho 110, 3% DMSO, triplicate; for IC50: 11 compound concentrations, two-fold serial dilutions
Protocol: Each assay was measured in triplicate. […] All reactions contained a final concentration of 3% DMSO. […] The percent inhibition was calculated using Equation (1).
The assay design was identical to as described above. The percent inhibition was calculated using Equation 1 and fit to Equation 2 by use of the Enzyme Kinetics Module of Sigma Plot (v13:Systat Software Inc.), to determine the IC50 value.

Chain of USP7 (Q93009 whole entry): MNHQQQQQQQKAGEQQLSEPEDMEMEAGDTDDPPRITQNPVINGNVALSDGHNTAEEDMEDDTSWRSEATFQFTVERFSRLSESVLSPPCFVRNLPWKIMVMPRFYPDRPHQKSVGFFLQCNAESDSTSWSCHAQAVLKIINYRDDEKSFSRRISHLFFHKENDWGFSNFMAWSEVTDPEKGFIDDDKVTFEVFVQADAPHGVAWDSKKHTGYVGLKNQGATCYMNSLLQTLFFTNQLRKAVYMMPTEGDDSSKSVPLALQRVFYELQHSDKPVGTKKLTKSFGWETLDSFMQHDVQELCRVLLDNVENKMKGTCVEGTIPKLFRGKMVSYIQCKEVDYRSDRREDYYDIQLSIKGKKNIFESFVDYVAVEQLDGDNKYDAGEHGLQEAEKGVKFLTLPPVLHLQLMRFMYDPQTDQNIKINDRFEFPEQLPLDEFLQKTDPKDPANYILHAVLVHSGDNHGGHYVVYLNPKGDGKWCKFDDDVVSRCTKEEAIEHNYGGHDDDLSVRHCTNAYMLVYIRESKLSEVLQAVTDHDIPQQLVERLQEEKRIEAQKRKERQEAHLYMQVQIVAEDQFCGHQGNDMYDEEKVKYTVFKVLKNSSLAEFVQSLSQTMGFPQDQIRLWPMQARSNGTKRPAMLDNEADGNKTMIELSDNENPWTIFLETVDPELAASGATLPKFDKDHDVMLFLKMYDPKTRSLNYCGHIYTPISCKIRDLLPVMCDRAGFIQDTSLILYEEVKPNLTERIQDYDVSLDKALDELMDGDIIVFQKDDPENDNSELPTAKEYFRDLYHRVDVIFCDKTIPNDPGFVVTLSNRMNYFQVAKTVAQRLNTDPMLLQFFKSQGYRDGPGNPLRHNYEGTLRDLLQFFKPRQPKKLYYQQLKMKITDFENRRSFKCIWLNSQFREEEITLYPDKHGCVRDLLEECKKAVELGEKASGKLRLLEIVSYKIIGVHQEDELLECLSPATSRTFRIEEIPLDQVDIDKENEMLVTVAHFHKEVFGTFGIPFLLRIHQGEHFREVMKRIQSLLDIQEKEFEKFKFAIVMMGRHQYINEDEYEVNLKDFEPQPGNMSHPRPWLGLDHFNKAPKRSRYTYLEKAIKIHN

SMILES | inhibition at 100 µM | IC50 (1 nM USP7, 200 nM Ub-Rho 110) | % inhibition @100 μM | inhibition at 150 µM (tested at 150 μM compound, 1 nM USP7, 200 nM Ub-Rho 110)
COc1cc(C)c(C2C(C#N)=C(N)Oc3n[nH]c(-c4cccs4)c32)cc1C(C)C (racemic) [Compound 6r, 6-Amino-4-(5-isopropyl-4-methoxy-2-methylphenyl)-3-(thiophen-2-yl)-2,4-dihydropyrano[2,3-c]pyrazole-5-carbonitrile] | 95 ± 4% | 1.4 ± 0.2 µM | – | –
CCCOc1ccc(C2C(C#N)=C(N)Oc3n[nH]c(-c4cccs4)c32)cc1Br (stereo not shown) [Compound 6m, 6-Amino-4-(3-bromo-4-propoxyphenyl)-3-(thiophen-2-yl)-2,4-dihydropyrano [2,3-c]pyrazole-5-carbonitrile] | 32 ± 5% | – | – | –
C=CCN1CCc2ccc(C3C(C#N)=C(N)Oc4n[nH]c(-c5cccs5)c43)cc21 (stereo not shown) [Compound 6i, 4-(1-Allylindolin-6-yl)-6-amino-3-(thiophen-2-yl)-2,4-dihydropyrano[2,3-c]pyrazole-5-carbonitrile] | 63 ± 1% | – | – | –
Cc1ccc(C2C(C#N)=C(N)Oc3n[nH]c(-c4cccs4)c32)cc1 (stereo not shown) [Compound 6e, 6-Amino-3-(thiophen-2-yl)-4-(p-tolyl)-2,4-dihydropyrano [2,3-c]pyrazole-5-carbonitrile] | 0% | – | – | –
N#CC1=C(N)Oc2n[nH]c(-c3cccs3)c2C1c1ccc(N=[N+]=[N-])c(I)c1 (stereo not shown) [Compound 6p, 6-Amino-4-(4-azido-3-iodophenyl)-3-(thiophen-2-yl)-2,4-dihydropyrano[2,3-c]pyrazole-5-carbonitrile] | 62 ± 20% | – | – | –
COc1ccc(C2C(C#N)=C(N)Oc3n[nH]c(-c4cccnc4)c32)cc1Br (racemic) [Compound 7e, 6-Amino-4-(3-bromo-4-methoxyphenyl)-3-(pyridin-3-yl)-2,4-dihydropyrano [2,3-c]pyrazole-5-carbonitrile] | 82 ± 9% | 24 ± 5 µM | – | –
Cc1ccc(C2C(C#N)=C(N)Oc3n[nH]c(-c4ccc(Cl)cc4)c32)cc1C (stereo not shown) [Compound 7g, 6-Amino-3-(4-chlorophenyl)-4-(3,4-dimethylphenyl)-2,4-dihydropyrano[2,3-c]pyrazole-5-carbonitrile] | 34 ± 6% | – | – | –
COc1ccc(C2C(C#N)=C(N)Oc3n[nH]c(-c4cccs4)c32)cc1I (racemic) [Compound 6u, 6-Amino-4-(3-iodo-4-methoxyphenyl)-3-(thiophen-2-yl)-2,4-dihydropyrano [2,3-c]pyrazole-5-carbonitrile] | 85 ± 1% | 1.8 ± 0.1 µM | – | –
COc1ccc(C2C(C#N)=C(N)Oc3n[nH]c(-c4ccccn4)c32)cc1Br (racemic) [Compound 7c, 6-Amino-4-(3-bromo-4-methoxyphenyl)-3-(pyridin-2-yl)-2,4-dihydropyrano [2,3-c]pyrazole-5-carbonitrile] | 85 ± 2% | 7.9 ± 0.4 µM | – | –
CCOCNC1=C(C#N)C(c2ccc(OC)c(Br)c2)c2c(-c3cccs3)nn(C)c2O1 (stereo not shown) [Compound 11, 4-(3-Bromo-4-methoxyphenyl)-6-((ethoxymethyl)amino)-1-methyl-3-(thiophen-2-yl)-1,4-dihydropyrano [2,3-c]pyrazole-5-carbonitrile] | 0% | – | – | –
N#CC1=C(N)Oc2n[nH]c(-c3cccs3)c2C1c1ccc(O)c(C(F)(F)F)c1 (racemic) [Compound 6q, 6-Amino-4-(4-hydroxy-3-(trifluoromethyl)phenyl)-3-(thiophen-2-yl)-2,4-dihydropyrano[2,3-c]pyrazole-5-carbonitrile] | 92 ± 2% | 11 ± 0.7 µM | – | –
N#CC1=C(N)Oc2n[nH]c(-c3cccs3)c2C1c1cccc(Br)c1 (stereo not shown) [Compound 6c, 6-Amino-4-(3-bromophenyl)-3-(thiophen-2-yl)-2,4-dihydropyrano[2,3-c]pyrazole-5-carbonitrile] | 0% | – | – | –
N#CC1=C(N)Oc2n[nH]c(-c3cccs3)c2C1c1cc(Br)c(OCc2ccccc2)c(Br)c1 (stereo not shown) [Compound 6l, 6-amino-4-(4-(benzyloxy)-3,5-dibromophenyl)-3-(thiophen-2-yl)-2,4-dihydropyrano[2,3-c]pyrazole-5-carbonitrile] | 26 ± 3% | – | – | –
COc1ccc(C2C(C#N)=C(N)Oc3n[nH]c(-c4cccs4)c32)cc1Cl (racemic) [Compound 6t, 6-Amino-4-(3-chloro-4-methoxyphenyl)-3-(thiophen-2-yl)-2,4-dihydropyrano [2,3-c]pyrazole-5-carbonitrile] | 55 ± 3% | 7 ± 2 µM | – | –
N#CC1=C(N)Oc2n[nH]c(-c3cccs3)c2C1c1ccc(O)c(C(F)(F)F)c1 (racemic) [Compound 6v, 6-Amino-4-(4-hydroxy-3-(trifluoromethyl)phenyl)-3-(thiophen-2-yl)-2,4-dihydropyrano[2,3-c]pyrazole-5-carbonitrile] | – | 0.75 ± 0.06 µM | 93 ± 4% | –
N#CC1=C(N)Oc2n[nH]c(-c3cccs3)c2C1c1ccc(O)cc1 (stereo not shown) [Compound 6d, 6-Amino-4-(4-hydroxyphenyl)-3-(thiophen-2-yl)-2,4-dihydropyrano [2,3-c]pyrazole-5-carbonitrile] | 0% | – | – | –

SMILES | inhibition at 100 µM | IC50 (1 nM USP7, 200 nM Ub-Rho 110) | % inhibition @100 μM | inhibition at 150 µM (tested at 150 μM compound, 1 nM USP7, 200 nM Ub-Rho 110)
COc1ccc(C2C(C#N)=C(N)Oc3n[nH]c(-c4ccc(Cl)cc4)c32)cc1Br (racemic) [Compound 7h, 6-Amino-4-(3-bromo-4-methoxyphenyl)-3-(4-chlorophenyl)-2,4-dihydropyrano [2,3-c]pyrazole-5-carbonitrile] | 66 ± 3% | 7.5 ± 0.9 µM | – | –
COc1ccc(C2C(C#N)=C(N)Oc3n[nH]c(-c4ccn(C)c4)c32)cc1I (racemic) [Compound 7m, 6-Amino-4-(3-iodo-4-methoxyphenyl)-3-(1-methyl-1H-pyrrol-3-yl)-2,4-dihydropyrano[2,3-c]pyrazole-5-carbonitrile] | 89 ± 1% | 1.31 ± 0.06 µM | – | –
COc1ccc(C2C(C#N)=C(N)Oc3n[nH]c(-c4ccsc4)c32)cc1I (racemic) [Compound 7b, 6-Amino-4-(3-iodo-4-methoxyphenyl)-3-(thiophen-3-yl)-2,4-dihydropyrano [2,3-c]pyrazole-5-carbonitrile] | 71 ± 3% | 5.6 ± 0.7 µM | – | –
N#CC1=C(N)Oc2n[nH]c(-c3cccs3)c2C1c1ccc2c(c1)CCO2 (racemic) [Compound 6o, 6-Amino-4-(2,3-dihydrobenzofuran-5-yl)-3-(thiophen-2-yl)-2,4-dihydropyrano [2,3-c]pyrazole-5-carbonitrile] | 45 ± 9% | 13 ± 3 µM | – | –
COc1ccc(C2C(C#N)=C(N)Oc3n[nH]c(-c4cccs4)c32)cc1F (racemic) [Compound 6s, 6-Amino-4-(3-fluoro-4-methoxyphenyl)-3-(thiophen-2-yl)-2,4-dihydropyrano [2,3-c]pyrazole-5-carbonitrile] | 32 ± 13% | 7 ± 2 µM | – | –
CNC1=C(C#N)C(c2ccc(OC)c(Br)c2)c2c(n[nH]c2-c2cccs2)O1 (stereo not shown) [Compound 13, 4-(3-Bromo-4-methoxyphenyl)-6-(methylamino)-3-(thiophen-2-yl)-2,4-dihydropyrano[2,3-c]pyrazole-5-carbonitrile] | 47 ± 1% | – | – | –
COc1ccc(C2C(C#N)=C(N)Oc3n[nH]c(-c4cccs4)c32)cc1 (stereo not shown) [Compound 6b, 6-Amino-4-(4-methoxyphenyl)-3-(thiophen-2-yl)-2,4-dihydropyrano [2,3-c]pyrazole-5-carbonitrile] | 10 ± 7% | – | – | –
COc1ccc(C2C(C#N)=C(N)Oc3n[nH]c(-c4ccsc4)c32)cc1Br (racemic) [Compound 7a, 6-Amino-4-(3-bromo-4-methoxyphenyl)-3-(thiophen-3-yl)-2,4-dihydropyrano [2,3-c]pyrazole-5-carbonitrile] | 72 ± 4% | 8.1 ± 1 µM | – | –
COc1ccc(C2C(C#N)=C(N)Oc3n[nH]c(-c4ccc(Cl)cc4)c32)cc1I (stereo not shown) [Compound 7i, 6-Amino-3-(4-chlorophenyl)-4-(3-iodo-4-methoxyphenyl)-2,4-dihydropyrano [2,3-c]pyrazole-5-carbonitrilem] | – | 15 ± 2 µM | 69 ± 3% | –
COc1ccc(C2C(C#N)=COc3n[nH]c(-c4cccs4)c32)cc1Br (stereo not shown) [Compound 15, 4-(3-Bromo-4-methoxyphenyl)-3-(thiophen-2-yl)-2,4-dihydropyrano [2,3-c]pyrazole-5-carbonitrile] | 0% | – | – | –
COc1ccc(C2C(C#N)=C(N)Oc3n[nH]c(-c4ccn(C)c4)c32)cc1Br (racemic) [Compound 7l, 6-Amino-4-(3-bromo-4-methoxyphenyl)-3-(1-methyl-1H-pyrrol-3-yl)-2,4-dihydropyrano[2,3-c]pyrazole-5-carbonitrile] | 88 ± 0.09% | 1.91 ± 0.8 µM | – | –
COc1ccc(C2C(C#N)=C(N)Oc3n[nH]c(-c4cccnc4)c32)cc1I (racemic) [Compound 7f, 6-Amino-4-(3-iodo-4-methoxyphenyl)-3-(pyridin-3-yl)-2,4-dihydropyrano [2,3-c]pyrazole-5-carbonitrile] | 83 ± 3% | 7.7 ± 0.9 µM | – | –
C#CCOc1ccc(C2C(C#N)=C(N)Oc3n[nH]c(-c4cccs4)c32)cc1Br (racemic) [Compound 6n, 6-Amino-4-(3-bromo-4-(prop-2-yn-1-yloxy)phenyl)-3-(thiophen-2-yl)-2,4-dihydropyrano[2,3-c]pyrazole-5-carbonitrile] | 84 ± 2% | 4.5 ± 0.6 µM | – | –
COc1ccc(C2C(C#N)=C(N)Oc3n[nH]c(-c4ccccn4)c32)cc1I (racemic) [Compound 7d, 6-Amino-4-(3-iodo-4-methoxyphenyl)-3-(pyridin-2-yl)-2,4-dihydropyrano [2,3-c]pyrazole-5-carbonitrile] | – | 4.4 µM | – | 89 ± 2%
COc1ccc(C2C(C#N)=C(N)Oc3c2c(-c2cccs2)nn3C)cc1I (stereo not shown) [Compound 9b, 6-Amino-4-(3-iodo-4-methoxyphenyl)-1-methyl-3-(thiophen-2-yl)-1,4-dihydropyrano[2,3-c]pyrazole-5-carbonitrile] | 0% | – | – | –
